Test results from PubChem BioAssay (NCI).
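Grown in 96-well plates, cells were treated for 48 hours with each compound at five concentrations. Insufficient inhibition: endpoint recorded as highest concentration tested. TGI is the concentration that stops growth completely.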

Key:
Assay in all cases: NCI tumour cell line growth inhibition, 48 h
[1] = tested on: MCF7 breast
[2] = tested on: HCT-116 colon
[3] = tested on: SK-MEL-28 melanoma
[4] = tested on: CAKI-1 renal
[5] = tested on: A549 NSCLC
[6] = tested on: HOP-92 NSCLC
[7] = tested on: OVCAR-5 ovarian
[8] = tested on: SK-OV-3 ovarian
[9] = tested on: HCC-2998 colon
[10] = tested on: COLO 205 colon
[11] = tested on: MDA-MB-435
[12] = tested on: A498 renal
[13] = tested on: ACHN renal
[14] = tested on: NCI-H522 lung
[15] = tested on: MDA-N
[16] = tested on: SNB-75 CNS
[17] = tested on: KM12 colon
[18] = tested on: BT-549 breast
[19] = tested on: HT29 colon
[20] = tested on: SN12C renal
[21] = tested on: EKVX NSCLC
[22] = tested on: T-47D breast
[23] = tested on: IGROV1 ovarian
[24] = tested on: DU-145 prostate
[25] = tested on: MDA-MB-231 breast
[26] = tested on: SK-MEL-2 melanoma
[27] = tested on: SF-268 CNS
[28] = tested on: NCI-H460 lung
[29] = tested on: K-562 leukemia
[30] = tested on: CCRF-CEM leukemia
[31] = tested on: SNB-19 CNS
[32] = tested on: PC-3 prostate
[33] = tested on: LOX IMVI melanoma
[34] = tested on: SR leukemia
[35] = tested on: MOLT-4 leukemia
[36] = tested on: SW-620 colon
[37] = tested on: UACC-62 melanoma
[38] = tested on: MALME-3M melanoma
[39] = tested on: SK-MEL-5 melanoma
[40] = tested on: NCI-H23 lung
[41] = tested on: NCI-H226 lung
[42] = tested on: SF-295 CNS
[43] = tested on: NCI/ADR-RES ovarian
[44] = tested on: RPMI-8226 leukemia
[45] = tested on: HL-60(TB) leukemia
[46] = tested on: M14 melanoma
[47] = tested on: OVCAR-3 ovarian
[48] = tested on: TK-10 renal
[49] = tested on: HOP-62 NSCLC
[50] = tested on: OVCAR-4 ovarian
[51] = tested on: SF-539 CNS
[52] = tested on: UACC-257 melanoma
[53] = tested on: UO-31 renal
[54] = tested on: HCT-15 colon
[55] = tested on: RXF 393 renal
[56] = tested on: 786-0 renal
[57] = tested on: U251 CNS
[58] = tested on: OVCAR-8 ovarian
[59] = tested on: HS 578T breast

C=C1C(=O)OC2/C=C(/C)C3(O)OC(C)(CC(OC(=O)C(C)C)C12)CC3OC(C)=O (centres undefined)
TGI [1]: 26.3 µM
TGI [2]: > 100 µM
TGI [3]: > 53 µM
TGI [4]: 7.18 µM
TGI [5]: > 100 µM
TGI [6]: 40.1 µM
TGI [7]: 65.9 µM
TGI [8]: 26.1 µM
TGI [9]: 16.5 µM
TGI [10]: 18.1 µM
TGI [11]: > 43.8 µM
TGI [12]: 15.5 µM
TGI [13]: 8.67 µM
TGI [14]: 6.25 µM
TGI [15]: 4.94 µM
TGI [16]: > 100 µM
TGI [17]: 41 µM
TGI [18]: 22.3 µM
TGI [19]: 22 µM
TGI [20]: 17.5 µM
TGI [21]: 46.5 µM
TGI [22]: > 100 µM
TGI [23]: 36.6 µM
TGI [24]: > 69.6 µM
TGI [25]: > 42.6 µM
TGI [26]: 49.7 µM
TGI [27]: > 100 µM
TGI [28]: 25 µM
TGI [29]: > 100 µM
TGI [30]: > 25.5 µM
TGI [31]: 36.6 µM
TGI [32]: 62.9 µM
TGI [33]: > 68.8 µM
TGI [34]: > 31.5 µM
TGI [35]: > 31.6 µM
TGI [36]: > 45.1 µM
TGI [37]: 31.6 µM
TGI [38]: 36.5 µM
TGI [39]: 23.8 µM
TGI [40]: 18.6 µM
TGI [41]: > 87 µM
TGI [42]: 56.5 µM
TGI [43]: > 100 µM
TGI [44]: > 100 µM
TGI [45]: > 19.7 µM
TGI [46]: 68 µM
TGI [47]: 29.8 µM
TGI [48]: 24.4 µM
TGI [49]: > 100 µM
TGI [50]: > 65.5 µM
TGI [51]: > 29.5 µM
TGI [52]: 68 µM
TGI [53]: 22.2 µM
TGI [54]: 24.5 µM
TGI [55]: 6.82 µM
TGI [56]: > 100 µM
TGI [57]: 38.2 µM
TGI [58]: > 100 µM

CC/C(Cl)=N\OC(=O)Nc1ccc(F)c([N+](=O)[O-])c1
TGI [1]: > 37.8 µM
TGI [2]: 30.6 µM
TGI [3]: 33.9 µM
TGI [4]: 7.7 µM
TGI [5]: 43.4 µM
TGI [6]: 12 µM
TGI [7]: 44.9 µM
TGI [8]: 34.5 µM
TGI [9]: > 100 µM
TGI [10]: 6.58 µM
TGI [11]: 33.5 µM
TGI [12]: 39.4 µM
TGI [13]: 4.78 µM
TGI [15]: 39.6 µM
TGI [16]: 38.9 µM
TGI [17]: 34.2 µM
TGI [18]: 31.5 µM
TGI [19]: > 57.8 µM
TGI [20]: 47.1 µM
TGI [21]: 35.6 µM
TGI [23]: 33.8 µM
TGI [24]: 36.9 µM
TGI [25]: 34.9 µM
TGI [26]: 32 µM
TGI [27]: 36.4 µM
TGI [28]: > 100 µM
TGI [29]: > 24.5 µM
TGI [30]: > 20 µM
TGI [31]: 33.7 µM
TGI [32]: 32.4 µM
TGI [33]: > 48.9 µM
TGI [34]: > 68.6 µM
TGI [35]: > 36.3 µM
TGI [36]: 33.6 µM
TGI [37]: 35.8 µM
TGI [38]: 4.35 µM
TGI [39]: 29.5 µM
TGI [40]: 35.6 µM
TGI [41]: > 100 µM
TGI [42]: 41.6 µM
TGI [43]: 75.8 µM
TGI [44]: > 25.3 µM
TGI [59]: 31.7 µM
TGI [46]: > 53.6 µM
TGI [47]: 18.3 µM
TGI [48]: 26.1 µM
TGI [49]: 35 µM
TGI [50]: 14.7 µM
TGI [51]: > 100 µM
TGI [52]: 35.1 µM
TGI [53]: 14.2 µM
TGI [54]: 19.8 µM
TGI [55]: 30.4 µM
TGI [56]: 26.8 µM
TGI [57]: 46.3 µM
TGI [58]: 32.8 µM
